“And” between values parts separate entries of the source, which are not always exact repeats. Equal values may be shown once. Toxic doses and inconclusive results are not listed.
Tested on: BDF1 mice, intracerebral B16 melanoma, median survival T/C
Assay: NCI In Vivo Anticancer Drug Screen. Data for tumor model B16 Melanoma (intracerebral) in B6D2F1 (BDF1) mice
Conditions: endpoint: median survival time, higher = longer survival
Protocol: The antitumor activity of compounds was measured in mice bearing transplantable tumors. Survival or tumor size were measured and the results are expressed as the measurement made in the treated group (T) divided by the measurement made in the vehicle treated control group (C). The tumor model used in this assay is B16 Melanoma (intracerebral) in B6D2F1 (BDF1) mice

[1] = dose: 100.0 mg/kg/injection, schedule: Q01DX009 (ip), vehicle: saline
[2] = dose: 200.0 mg/kg/injection, schedule: Q01DX009 (ip), vehicle: saline
[3] = dose: 0.5 mg/kg/injection, schedule: Q01DX009 (ip), vehicle: saline
[4] = dose: 1.0 mg/kg/injection, schedule: Q01DX009 (ip), vehicle: saline
[5] = dose: 2.0 mg/kg/injection, schedule: Q01DX009 (ip), vehicle: saline
[6] = dose: 6.25 mg/kg/injection, schedule: Q01DX009 (ip), vehicle: other
[7] = dose: 12.5 mg/kg/injection, schedule: Q01DX009 (ip), vehicle: other
[8] = dose: 50.0 mg/kg/injection, schedule: Q01DX009 (ip), vehicle: other
[9] = dose: 50.0 mg/kg/injection, schedule: Q01DX005 (ip), vehicle: Klucel (hydroxypropylcellulose) (HPC)
[10] = dose: 100.0 mg/kg/injection, schedule: Q01DX005 (ip), vehicle: Klucel (hydroxypropylcellulose) (HPC)
[11] = dose: 4.0 mg/kg/injection, schedule: Q01DX009 (ip), vehicle: saline with Tween-80
[12] = dose: 4.0 mg/kg/injection, schedule: Q01DX009 (ip), vehicle: saline
[13] = dose: 8.0 mg/kg/injection, schedule: Q01DX009 (ip), vehicle: saline with Tween-80
[14] = dose: 16.0 mg/kg/injection, schedule: Q01DX009 (ip), vehicle: saline with Tween-80

## Cc1cn(C2CC(O)C(CO)O2)c(=O)[nH]c1=O (stereo not given)
dose: 100.0 mg/kg/injection, schedule: Q01DX009 (ip), vehicle: saline with Tween-80
  T/C: 102 % of control and 109 % of control
[1]
  T/C: 100 % of control and 111 % of control
dose: 200.0 mg/kg/injection, schedule: Q01DX009 (ip), vehicle: saline with Tween-80
  T/C: 105 % of control
[2]
  T/C: 103 % of control and 110 % of control
dose: 400.0 mg/kg/injection, schedule: Q01DX009 (ip), vehicle: saline with Tween-80
  T/C: 105 % of control
dose: 400.0 mg/kg/injection, schedule: Q01DX009 (ip), vehicle: saline
  T/C: 94 % of control and 101 % of control
dose: 800.0 mg/kg/injection, schedule: Q01DX009 (ip), vehicle: saline with Tween-80
  T/C: 124 % of control and 95 % of control
dose: 800.0 mg/kg/injection, schedule: Q01DX009 (ip), vehicle: saline
  T/C: 100 % of control and 107 % of control
dose: 1600.0 mg/kg/injection, schedule: Q01DX009 (ip), vehicle: saline with Tween-80
  T/C: 92 % of control and 94 % of control

## NC(Cc1ccc(N(CCCl)CCCl)cc1)C(=O)O (stereo not given)
dose: 2.0 mg/kg/injection, schedule: Q01DX009 (ip), vehicle: water
  T/C: 120 % of control

## O=C1c2c(O)ccc(O)c2C(=O)c2c(NCCNCCO)ccc(NCCNCCO)c21
[3]
  T/C: 90 % of control
[4]
  T/C: 96 % of control
[5]
  T/C: 102 % of control

## Cc1ccc2c(c1)Sc1ccc(N=NN(C)C)cc1N2C
[6]
  T/C: 101 % of control
[7]
  T/C: 116 % of control
dose: 25.0 mg/kg/injection, schedule: Q01DX009 (ip), vehicle: other
  T/C: 98 % of control
[8]
  T/C: 116 % of control
dose: 100.0 mg/kg/injection, schedule: Q01DX009 (ip), vehicle: other
  T/C: 112 % of control

## COc1ccc2cc1Oc1ccc(cc1)C[C@H]1c3cc(c(OC)cc3CCN1C)Oc1c(OC)c(OC)cc3c1[C@H](C2)N(C)CC3
[9]
  T/C: 100 % of control
[10]
  T/C: 98 % of control and 103 % of control
dose: 200.0 mg/kg/injection, schedule: Q01DX005 (ip), vehicle: Klucel (hydroxypropylcellulose) (HPC)
  T/C: 119 % of control and 101 % of control
dose: 400.0 mg/kg/injection, schedule: Q01DX005 (ip), vehicle: Klucel (hydroxypropylcellulose) (HPC)
  T/C: 95 % of control and 113 % of control

## O=NN(CCF)C(=O)NC1CCC(=O)NC1=O (stereo not given)
dose: 26.7 mg/kg/injection, schedule: Q01DX001 (ip), vehicle: Klucel (hydroxypropylcellulose) (HPC)
  T/C: 115 % of control
dose: 40.0 mg/kg/injection, schedule: Q01DX001 (ip), vehicle: Klucel (hydroxypropylcellulose) (HPC)
  T/C: 111 % of control
dose: 60.0 mg/kg/injection, schedule: Q01DX001 (ip), vehicle: Klucel (hydroxypropylcellulose) (HPC)
  T/C: 157 % of control

## COc1cc(C[C@H]2c3cc(OC)c(OC)cc3CCN2C)c(Oc2cc3c(cc2OC)-c2c(OC)c(OC)cc4c2[C@H](C3)N(C)CC4)cc1OC
[9]
  T/C: 120 % of control and 94 % of control
[10]
  T/C: 108 % of control

## Nc1nc2c(c(=O)[nH]1)N(C=O)C(CNc1ccc(C(=O)N[C@@H](CCC(=O)O)C(=O)O)cc1)CN2 (stereo not given in full)
dose: 128.0 mg/kg/injection, schedule: Q01DX005 (ip), vehicle: saline
  T/C: 102 % of control
dose: 256.0 mg/kg/injection, schedule: Q01DX005 (ip), vehicle: saline
  T/C: 95 % of control
dose: 512.0 mg/kg/injection, schedule: Q01DX005 (ip), vehicle: saline
  T/C: 87 % of control

## O=C1c2ccccc2C(=O)c2c(NCCNCCO)ccc(NCCNCCO)c21
dose: 1.0 mg/kg/injection, schedule: Q01DX005 (ip), vehicle: saline with Tween-80
  T/C: 120 % of control and 111 % of control
dose: 1.0 mg/kg/injection, schedule: Q01DX005 (ip), vehicle: saline
  T/C: 99 % of control and 107 % of control
dose: 2.0 mg/kg/injection, schedule: Q01DX005 (ip), vehicle: saline with Tween-80
  T/C: 118 % of control and 109 % of control
dose: 2.0 mg/kg/injection, schedule: Q01DX005 (ip), vehicle: saline
  T/C: 120 % of control and 99 % of control
dose: 4.0 mg/kg/injection, schedule: Q01DX005 (ip), vehicle: saline with Tween-80
  T/C: 109 % of control
dose: 4.0 mg/kg/injection, schedule: Q01DX005 (ip), vehicle: saline
  T/C: 104 % of control and 112 % of control
[11]
  T/C: 99 % of control and 102 % of control
[12]
  T/C: 95 % of control and 103 % of control
[13]
  T/C: 93 % of control and 102 % of control
dose: 8.0 mg/kg/injection, schedule: Q01DX009 (ip), vehicle: saline
  T/C: 98 % of control and 102 % of control
dose: 16.0 mg/kg/injection, schedule: Q01DX005 (ip), vehicle: Klucel (hydroxypropylcellulose) (HPC)
  T/C: 116 % of control
[14]
  T/C: 100 % of control
dose: 16.0 mg/kg/injection, schedule: Q01DX009 (ip), vehicle: saline
  T/C: 102 % of control and 103 % of control
dose: 32.0 mg/kg/injection, schedule: Q01DX005 (ip), vehicle: Klucel (hydroxypropylcellulose) (HPC)
  T/C: 107 % of control
dose: 32.0 mg/kg/injection, schedule: Q01DX009 (ip), vehicle: saline
  T/C: 86 % of control

## COC1=C(N2CC2)C(=O)C(OC)=C(N2CC2)C1=O
[3]
  T/C: 115 % of control
[4]
  T/C: 107 % of control
[5]
  T/C: 117 % of control
[12]
  T/C: 86 % of control

## CN(C)N=Nc1ccc(Cl)c2ncccc12
dose: 3.12 mg/kg/injection, schedule: Q01DX009 (ip), vehicle: other
  T/C: 108 % of control
[6]
  T/C: 97 % of control
[7]
  T/C: 100 % of control
[8]
  T/C: 94 % of control

## CSCS(=O)C[C@H](CO)NC(=O)/C=C/c1c(C)[nH]c(=O)[nH]c1=O (stereo not given in full)
dose: 0.06 mg/kg/injection, schedule: Q01DX005 (ip), vehicle: Klucel (hydroxypropylcellulose) (HPC)
  T/C: 97 % of control
dose: 0.12 mg/kg/injection, schedule: Q01DX005 (ip), vehicle: Klucel (hydroxypropylcellulose) (HPC)
  T/C: 98 % of control
dose: 0.25 mg/kg/injection, schedule: Q01DX005 (ip), vehicle: Klucel (hydroxypropylcellulose) (HPC)
  T/C: 103 % of control
dose: 0.5 mg/kg/injection, schedule: Q01DX005 (ip), vehicle: Klucel (hydroxypropylcellulose) (HPC)
  T/C: 98 % of control

## CC/C(=C(/CC)c1ccc(O)cc1)c1ccc(O)cc1
dose: 8.0 mg/kg/injection, schedule: Q01DX009 (ip), vehicle: Klucel (hydroxypropylcellulose) (HPC)
  T/C: 106 % of control
dose: 16.0 mg/kg/injection, schedule: Q01DX005 (ip), vehicle: saline with Tween-80
  T/C: 100 % of control
dose: 16.0 mg/kg/injection, schedule: Q01DX009 (ip), vehicle: Klucel (hydroxypropylcellulose) (HPC)
  T/C: 102 % of control
dose: 32.0 mg/kg/injection, schedule: Q01DX005 (ip), vehicle: saline with Tween-80
  T/C: 99 % of control and 111 % of control
dose: 32.0 mg/kg/injection, schedule: Q01DX009 (ip), vehicle: Klucel (hydroxypropylcellulose) (HPC)
  T/C: 95 % of control
dose: 64.0 mg/kg/injection, schedule: Q01DX005 (ip), vehicle: saline with Tween-80
  T/C: 96 % of control and 103 % of control
dose: 64.0 mg/kg/injection, schedule: Q01DX009 (ip), vehicle: Klucel (hydroxypropylcellulose) (HPC)
  T/C: 106 % of control
dose: 128.0 mg/kg/injection, schedule: Q01DX005 (ip), vehicle: saline with Tween-80
  T/C: 88 % of control and 102 % of control
dose: 128.0 mg/kg/injection, schedule: Q01DX009 (ip), vehicle: Klucel (hydroxypropylcellulose) (HPC)
  T/C: 104 % of control
dose: 256.0 mg/kg/injection, schedule: Q01DX009 (ip), vehicle: Klucel (hydroxypropylcellulose) (HPC)
  T/C: 111 % of control

## CCN(CC)CCCC(C)Nc1c2ccc(Cl)cc2nc2ccc(OC)cc12 (stereo not given)
dose: 1.0 mg/kg/injection, schedule: Q01DX009 (ip), vehicle: saline with Tween-80
  T/C: 96 % of control
dose: 2.0 mg/kg/injection, schedule: Q01DX009 (ip), vehicle: saline with Tween-80
  T/C: 151 % of control
[11]
  T/C: 122 % of control
[13]
  T/C: 105 % of control and 107 % of control
[14]
  T/C: 105 % of control
dose: 32.0 mg/kg/injection, schedule: Q01DX009 (ip), vehicle: saline with Tween-80
  T/C: 105 % of control
dose: 64.0 mg/kg/injection, schedule: Q01DX009 (ip), vehicle: saline with Tween-80
  T/C: 112 % of control

## CNNCc1ccc(C(=O)NC(C)C)cc1
dose: 25.0 mg/kg/injection, schedule: Q01DX009 (ip), vehicle: saline
  T/C: 120 % of control
dose: 75.0 mg/kg/injection, schedule: Q01DX009 (ip), vehicle: water
  T/C: 154 % of control
[1]
  T/C: 163 % of control
dose: 150.0 mg/kg/injection, schedule: Q01DX009 (ip), vehicle: water
  T/C: 163 % of control
[2]
  T/C: 168 % of control and 170 % of control
dose: 300.0 mg/kg/injection, schedule: Q01DX009 (ip), vehicle: water
  T/C: 100 % of control

— PubChem BioAssay AID196 (DTP/NCI, 2004)
